System: not listed separately
Test: Parallel artificial membrane permeability assay (PAMPA)
Format: in vitro ADME
Conditions: FeSSIF pH 5
Method: Compound Papp values were determined by normalizing the experimental compound absorbance to the compounds’ absorbances at equilibrium, membrane porosity, buffer volume, and time (s). Two or more replicate assays were obtained on separate days for each pH.

Row | Structure (SMILES) | Avg Papp (PAMPA) | Interpretation (PAMPA Papp)
1 | CC(=NOCc1ccc(OCc2ccccc2)cc1)c1c(C)cc(=O)n(O)c1O [Compound 1738] | 25.9 ×10⁻⁶ cm/s | H (H: Papp > 1*10-6)
2 | CC(=NOCc1ccccc1C)c1c(C)cc(=O)n(O)c1O [Compound 1681] | 30 ×10⁻⁶ cm/s | H (H: Papp > 1*10-6)

Same assay, conditions: FeSSIF pH 5, replicate 1

Row | Structure (SMILES) | Papp 1 (PAMPA)
3 | CC(=NOCc1ccc(OCc2ccccc2)cc1)c1c(C)cc(=O)n(O)c1O [Compound 1738] | 19.9 ×10⁻⁶ cm/s
4 | CC(=NOCc1ccccc1C)c1c(C)cc(=O)n(O)c1O [Compound 1681] | 28.5 ×10⁻⁶ cm/s

Same assay, conditions: FeSSIF pH 5, replicate 2

Row | Structure (SMILES) | Papp 2 (PAMPA)
5 | CC(=NOCc1ccc(OCc2ccccc2)cc1)c1c(C)cc(=O)n(O)c1O [Compound 1738] | 42.6 ×10⁻⁶ cm/s
6 | CC(=NOCc1ccccc1C)c1c(C)cc(=O)n(O)c1O [Compound 1681] | 31.5 ×10⁻⁶ cm/s

Same assay, conditions: FeSSIF pH 5, replicate 3

Row | Structure (SMILES) | Papp 3 (PAMPA)
7 | CC(=NOCc1ccc(OCc2ccccc2)cc1)c1c(C)cc(=O)n(O)c1O [Compound 1738] | 3.74 ×10⁻⁶ cm/s

Same assay, conditions: FeSSIF pH 5, replicate 4

Row | Structure (SMILES) | Papp 4 (PAMPA)
8 | CC(=NOCc1ccc(OCc2ccccc2)cc1)c1c(C)cc(=O)n(O)c1O [Compound 1738] | 37.3 ×10⁻⁶ cm/s

Same assay, conditions: pH 7.4

Row | Structure (SMILES) | Avg Papp (PAMPA) | Interpretation (PAMPA Papp)
9 | CC(=NOCc1ccc(OCc2ccccc2)cc1)c1c(C)cc(=O)n(O)c1O [Compound 1738] | 5.42 ×10⁻⁶ cm/s | H (H: Papp > 1*10-6)
10 | CC(=NOCc1ccccc1C)c1c(C)cc(=O)n(O)c1O [Compound 1681] | 4.73 ×10⁻⁶ cm/s | H (H: Papp > 1*10-6)

Same assay, conditions: pH 7.4, replicate 1

Row | Structure (SMILES) | Papp 1 (PAMPA)
11 | CC(=NOCc1ccc(OCc2ccccc2)cc1)c1c(C)cc(=O)n(O)c1O [Compound 1738] | 1.34 ×10⁻⁶ cm/s
12 | CC(=NOCc1ccccc1C)c1c(C)cc(=O)n(O)c1O [Compound 1681] | 3.11 ×10⁻⁶ cm/s

Same assay, conditions: pH 7.4, replicate 2

Row | Structure (SMILES) | Papp 2 (PAMPA)
13 | CC(=NOCc1ccc(OCc2ccccc2)cc1)c1c(C)cc(=O)n(O)c1O [Compound 1738] | 9.64 ×10⁻⁶ cm/s
14 | CC(=NOCc1ccccc1C)c1c(C)cc(=O)n(O)c1O [Compound 1681] | 9.39 ×10⁻⁶ cm/s

Same assay, conditions: pH 7.4, replicate 3

Row | Structure (SMILES) | Papp 3 (PAMPA)
15 | CC(=NOCc1ccc(OCc2ccccc2)cc1)c1c(C)cc(=O)n(O)c1O [Compound 1738] | 9.47 ×10⁻⁶ cm/s
16 | CC(=NOCc1ccccc1C)c1c(C)cc(=O)n(O)c1O [Compound 1681] | 4.69 ×10⁻⁶ cm/s

Same assay, conditions: pH 7.4, replicate 4

Row | Structure (SMILES) | Papp 4 (PAMPA)
17 | CC(=NOCc1ccc(OCc2ccccc2)cc1)c1c(C)cc(=O)n(O)c1O [Compound 1738] | 1.23 ×10⁻⁶ cm/s
18 | CC(=NOCc1ccccc1C)c1c(C)cc(=O)n(O)c1O [Compound 1681] | 1.74 ×10⁻⁶ cm/s

Target: T1, human ribonuclease H1 (huRNase H1) (Homo sapiens, UniProt O60930)
T1 construct: made in house; host or cells: Escherichia coli
T1 sequence (O60930 1-286): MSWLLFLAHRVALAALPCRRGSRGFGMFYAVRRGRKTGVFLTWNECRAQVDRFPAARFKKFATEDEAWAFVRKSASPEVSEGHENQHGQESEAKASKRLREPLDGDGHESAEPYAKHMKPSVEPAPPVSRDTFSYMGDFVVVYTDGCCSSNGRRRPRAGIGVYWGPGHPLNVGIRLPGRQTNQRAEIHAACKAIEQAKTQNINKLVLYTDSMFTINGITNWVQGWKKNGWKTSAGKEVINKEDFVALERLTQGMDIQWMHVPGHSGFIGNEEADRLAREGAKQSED
Test: Human RNase H1 inhibition, fluorescent biochemical assay
Conditions: recombinant huRNase H1, RNA:DNA heteroduplex substrate
Method: Recombinant human ribonuclease H1 (huRNase H1) was expressed in Escherichia coli and purified by nickel affinity chromatography, as described previously ([30]). […] The heteroduplex substrate was prepared, as described by Ponzar et al. ([30]). Reactions were initiated by the addition of MgCl2 (5 mM final) and were performed on a Biotek Synergy HTX multi-mode plate reader at 28°C.
Maximum rates of fluorescence increase were calculated using the Biotek Gen5 v3.15 software and percentage activity was determined for each compound concentration by subtracting rates from no enzyme reactions and normalizing to DMSO reactions. […] Reactions were performed at least three times on separate days.

Row | Structure (SMILES) | IC50
19 | CC(=NOCc1ccc(OCc2ccccc2)cc1)c1c(C)cc(=O)n(O)c1O [Compound 1738] | 0.56 µM

System: HBV replication (HBV plus-polarity DNA strand)
Test: HBV replication inhibition, strand preferential qPCR in hepDES19 cells
Format: cell-based, hepatitis B virus
Conditions: not given
Method: HBV replication inhibition was measured in hepDES19 cells following 72 h compound exposure without compound replenishment. EC50 values were determined by HBV plus-polarity strand suppression using a strand preferential qPCR assay, as described previously ([28]). Three or more replicate values were obtained on different days.

Row | Structure (SMILES) | HepDES19 SI (CC50/EC50)
20 | CC(=NOCc1ccc(OCc2ccccc2)cc1)c1c(C)cc(=O)n(O)c1O [Compound 1738] | 6.53
21 | CC(=NOCc1ccccc1C)c1c(C)cc(=O)n(O)c1O [Compound 1681] | 25.2

Same assay, conditions: 72 h exposure, HBV plus-polarity strand suppression, highest concentration tested 100 µM, mean ± SD, read-out: HepDES19 EC50

Row | Structure (SMILES) | EC50
22 | CC(=NOCc1ccc(OCc2ccccc2)cc1)c1c(C)cc(=O)n(O)c1O [Compound 1738] | 7.49 ± 1.73 µM
23 | CC(=NOCc1ccccc1C)c1c(C)cc(=O)n(O)c1O [Compound 1681] | 3.97 ± 1.19 µM

System: HepDES19 cells
Test: not given
Conditions: read-out: HepDES19 CC50; 72 h, MTS; highest concentration tested 100 µM; mean ± SD

Row | Structure (SMILES) | CC50
24 | CC(=NOCc1ccc(OCc2ccccc2)cc1)c1c(C)cc(=O)n(O)c1O [Compound 1738] | 51.4 ± 19.2 µM
25 | CC(=NOCc1ccccc1C)c1c(C)cc(=O)n(O)c1O [Compound 1681] | > 100 µM

System: not listed separately
Test: Solubility limit, turbidimetric assay
Format: physicochemical
Conditions: pH 5 (fed simulated intestinal fluid); upper limit 200 µM
Method: Solubility limits were determined by a turbidimetric assay, as described ([27]), with the solubility limit being defined as the compound concentration where light scattering began to rise. Two or more replicate assays were performed for each compound at each pH on different days.

Row | Structure (SMILES) | Average Sol (solubility limit)
26 | CC(=NOCc1ccc(OCc2ccccc2)cc1)c1c(C)cc(=O)n(O)c1O [Compound 1738] | > 200 µM
27 | CC(=NOCc1ccccc1C)c1c(C)cc(=O)n(O)c1O [Compound 1681] | > 200 µM

Same assay, conditions: pH 5, replicate 1; upper limit 200 µM

Row | Structure (SMILES) | Sol 1 (solubility limit)
28 | CC(=NOCc1ccc(OCc2ccccc2)cc1)c1c(C)cc(=O)n(O)c1O [Compound 1738] | > 200 µM
29 | CC(=NOCc1ccccc1C)c1c(C)cc(=O)n(O)c1O [Compound 1681] | > 200 µM

Same assay, conditions: pH 5, replicate 2; upper limit 200 µM

Row | Structure (SMILES) | Sol 2 (solubility limit)
30 | CC(=NOCc1ccc(OCc2ccccc2)cc1)c1c(C)cc(=O)n(O)c1O [Compound 1738] | > 200 µM
31 | CC(=NOCc1ccccc1C)c1c(C)cc(=O)n(O)c1O [Compound 1681] | > 200 µM

Same assay, conditions: pH 6.5 (fasted simulated intestinal fluid); upper limit 200 µM

Row | Structure (SMILES) | Average Sol (solubility limit)
32 | CC(=NOCc1ccc(OCc2ccccc2)cc1)c1c(C)cc(=O)n(O)c1O [Compound 1738] | > 200 µM
33 | CC(=NOCc1ccccc1C)c1c(C)cc(=O)n(O)c1O [Compound 1681] | > 200 µM

Same assay, conditions: pH 6.5, replicate 1; upper limit 200 µM

Row | Structure (SMILES) | Sol 1 (solubility limit)
34 | CC(=NOCc1ccc(OCc2ccccc2)cc1)c1c(C)cc(=O)n(O)c1O [Compound 1738] | > 200 µM
35 | CC(=NOCc1ccccc1C)c1c(C)cc(=O)n(O)c1O [Compound 1681] | > 200 µM

Same assay, conditions: pH 6.5, replicate 2; upper limit 200 µM

Row | Structure (SMILES) | Sol 2 (solubility limit)
36 | CC(=NOCc1ccc(OCc2ccccc2)cc1)c1c(C)cc(=O)n(O)c1O [Compound 1738] | > 200 µM
37 | CC(=NOCc1ccccc1C)c1c(C)cc(=O)n(O)c1O [Compound 1681] | > 200 µM

Same assay, conditions: pH 7.4 (DMEM-F12 with 10% FBS); upper limit 200 µM

Row | Structure (SMILES) | Average Sol (solubility limit)
38 | CC(=NOCc1ccc(OCc2ccccc2)cc1)c1c(C)cc(=O)n(O)c1O [Compound 1738] | 167 µM
39 | CC(=NOCc1ccccc1C)c1c(C)cc(=O)n(O)c1O [Compound 1681] | 106 µM

Same assay, conditions: pH 7.4, replicate 1; upper limit 200 µM

Row | Structure (SMILES) | Sol 1 (solubility limit)
40 | CC(=NOCc1ccc(OCc2ccccc2)cc1)c1c(C)cc(=O)n(O)c1O [Compound 1738] | > 200 µM
41 | CC(=NOCc1ccccc1C)c1c(C)cc(=O)n(O)c1O [Compound 1681] | 25 µM

Same assay, conditions: pH 7.4, replicate 2; upper limit 200 µM

Row | Structure (SMILES) | Sol 2 (solubility limit)
42 | CC(=NOCc1ccc(OCc2ccccc2)cc1)c1c(C)cc(=O)n(O)c1O [Compound 1738] | 100 µM
43 | CC(=NOCc1ccccc1C)c1c(C)cc(=O)n(O)c1O [Compound 1681] | 100 µM

Same assay, conditions: pH 7.4, replicate 3; upper limit 200 µM

Row | Structure (SMILES) | Sol 3 (solubility limit)
44 | CC(=NOCc1ccc(OCc2ccccc2)cc1)c1c(C)cc(=O)n(O)c1O [Compound 1738] | > 200 µM
45 | CC(=NOCc1ccccc1C)c1c(C)cc(=O)n(O)c1O [Compound 1681] | > 200 µM

Same assay, conditions: pH 7.4, replicate 4; upper limit 200 µM

Row | Structure (SMILES) | Sol 4 (solubility limit)
46 | CC(=NOCc1ccccc1C)c1c(C)cc(=O)n(O)c1O [Compound 1681] | 100 µM

— publication PMC11784145, “Efficacy and in vitro pharmacological assessment of novel N-hydroxypyridinediones as hepatitis B virus ribonuclease H inhibitors” (Antimicrobial Agents and Chemotherapy, 2024)
